According to patent US6284746A (Chinoin, Ltd., priority 1993, dated 2001):
Values after ≈ are worked out from the molar mass of the structure shown.

Assays:
[1] = 25° C., 12 hours
[2] = Solubility of taxol with soluble anionic-β-cyclodextrin polymer CDPSI (Example 4); assay type: physicochemical
[3] = Solubilizing of taxol with HPBCD (Example 5); assay type: physicochemical
Source text: Taxol was solubilized and formulated with 2-hydroxypropylated β-cyclodextrin. (HPBCD).

[4] = cited from earlier work
[5] = background statement; cited from earlier work
physchem [6] = conditions: water
physchem [7] = conditions: 40% aqueous dimethyl-beta-cyclodextrin
Procedure: 11.6 mg of Taxol (Sigma Chemicals Co. USA) is treated in 10 ml of 40% aqueous heptakis-2,6-di-O-methylated β-cyclodextrin at room temperature for 30 minutes, until a solution of slight haze is obtained.

physchem [8] = conditions: pH 7.6
Procedure: Randomly methylated β-cyclodextrin (average degree of substitution=1.8) was dissolved in physiological buffered saline (pH 7.6) at different concentrations and these solutions were incubated with the taxol substrate for 12 hours at room temperature. Each sample contained taxol in 5 mg/ml initial concentration. The suspensions after equilibration were membrane filtered and assayed for dissolved taxol by HPLC.

physchem [9] = assay: physchem
Source text: The suspension was filtered and the dissolved taxol determined by HPLC.

SMILES: CC(=O)O[C@@]12CO[C@@H]1C[C@H](O)[C@@]1(C)C(=O)[C@H](O)C3=C(C)[C@@H](OC(=O)[C@H](O)[C@@H](NC(=O)OC(C)(C)C)c4ccccc4)C[C@@](O)([C@@H](OC(=O)c4ccccc4)[C@H]21)C3(C)C [Taxotere, butoxycarbonyl-10-deacetyl-N-debenzoyl taxol]
- solubility enhancement relative to free taxol derivative in water [1]: 850 times

SMILES: CC(=O)O[C@H]1C(=O)[C@@]2(C)[C@H]([C@H](OC(=O)c3ccccc3)[C@]3(O)C[C@H](OC(=O)[C@H](O)[C@@H](NC(=O)c4ccccc4)c4ccccc4)C(C)=C1C3(C)C)[C@]1(OC(C)=O)CO[C@@H]1C[C@@H]2O (relative stereo) [taxol, [2aR-[2aα, 4β; 4αβ,6β,9α(αR*,βS*),11α-12α,12aα, 12bα]]-β-(Benzoylamino)-α-hydroxybenzene-propanoic acid 6,12-b-bis (acetyloxy)-12-(benzoyloxy)-2a,3,4,4a, 5,6,9,10,11,12,12a,12b-dodecahydro-4,11-dihyroxy-4a,8,13,13-tetramethyl-5-oxo-7,11-methano-1H-cyclodeca[3,4]-benz-[1,2-b]oxet-9-yl ester]
- solubility ([2]; 0% cdpsi, CDPSI 0%): 0.6 µg/mL (≈ 0.703 µM)
- solubility ([2]; 1% cdpsi solution, CDPSI 1%): 1.8 µg/mL (≈ 2.11 µM)
- solubility ([2]; 5% cdpsi solution, CDPSI 5%): 3.5 µg/mL (≈ 4.1 µM)
- solubility ([2]; 10% cdpsi solution, CDPSI 10%): 10.6 µg/mL (≈ 12.4 µM)
- solubility ([2]; 40% cdpsi solution, CDPSI 40%): 56.8 µg/mL (≈ 66.5 µM)
- solubility ([3]; 0.5% hpbcd solution, HPBCD 0.5%): 1 µg/mL (≈ 1.17 µM)
- solubility ([3]; 1% hpbcd solution, HPBCD 1%): 1.7 µg/mL (≈ 1.99 µM)
- solubility ([3]; 5% hpbcd solution, HPBCD 5%): 6.8 µg/mL (≈ 7.96 µM)
- solubility ([3]; 10% hpbcd solution, HPBCD 10%): 34.9 µg/mL (≈ 40.9 µM)
- solubility ([3]; 40% hpbcd solution, HPBCD 40%): 100 µg/mL (≈ 118 µM)
- solubility ([3]; HPBCD none): 0.6 µg/mL (≈ 0.703 µM)
- stability of taxol ([4]; Bartoli et al., background): generally poor stability
- sensitivity to light and pH ([4]; background statement): very sensitive to light and the pH
- solubility of taxol ([4]; glycosyl- and maltosyl-β-cyclodextrins with ethanol and ethylacetate (Mikuni 1993)): 20 to 110 µg/mL
- antitumor activity [5]: significant antitumor activity
- products of decomposition, biological activity [5]: biologically inactive products are forming
- solubility (physchem [6]): 0.55 to 0.59 µg/mL (≈ 0.644 to 0.691 µM)
- solubility at 0.5 h (physchem [7]): 992 to 1000 µg/mL (≈ 1160 to 1170 µM)
- solubility thermodynamic at 12 h (physchem [8]; 1% rameb in buffered saline): 4.4 µg/mL (≈ 5.15 µM)
- solubility thermodynamic at 12 h (physchem [8]; 5% rameb in buffered saline): 42.5 µg/mL (≈ 49.8 µM)
- solubility thermodynamic at 12 h (physchem [8]; 10% rameb in buffered saline): 232 µg/mL (≈ 271 µM)
- solubility thermodynamic at 12 h (physchem [8]; 40% rameb in buffered saline): 860 µg/mL (≈ 1010 µM)
- solubility thermodynamic at 12 h (physchem [8]; buffered saline): 0.6 µg/mL (≈ 0.703 µM)
- solubility thermodynamic at 12 h (physchem [9]; 10% aqueous succinyl-methyl-β-cyclodextrin): 244 µg/mL (≈ 286 µM)
- solubility thermodynamic at 12 h (physchem [9]; 40% succinyl-methyl-β-cyclodextrin solution): 993 µg/mL (≈ 1160 µM)
